Data as given in ChEMBL document CHEMBL3734678, “Protective effect and mechanism of action of lupane triterpenes from Cornus walteri in cisplatin-induced nephrotoxicity” (2015).
Calls of active or inactive are those of the source. The rule behind the calls is not given here.

Experiments:
LLC-PK1 [1] = assay: Inhibition of cisplatin-induced p38 phosphorylation in pig LLC-PK1 cells at 125 uM preincubated for 2 hrs followed by cisplatin challenge for 24 hrs by western blot analysis; assay type: cell-based; details: Sus scrofa
LLC-PK1 [2] = assay: Renoprotective activity in pig LLC-PK1 cells assessed as reduction in cisplatin-induced toxicity at 250 uM preincubated for 2 hrs followed by cisplatin challenge for 24 hrs by MTT assay; assay type: functional, Sus scrofa; design: scale not given: the % may be the effect or the level left
LLC-PK1 [3] = assay: Inhibition of cisplatin-induced JNK phosphorylation in pig LLC-PK1 cells at 125 uM preincubated for 2 hrs followed by cisplatin challenge for 24 hrs by western blot analysis; assay type: cell-based; details: Sus scrofa
LLC-PK1 [4] = assay: Renoprotective activity in pig LLC-PK1 cells assessed as reduction in cisplatin-induced nucleus break-up at 125 uM preincubated for 2 hrs followed by cisplatin challenge for 24 hrs by phase-contrast microscopic analysis; assay type: functional, cell-based; details: Sus scrofa
LLC-PK1 [5] = assay: Inhibition of cisplatin-induced ERK phosphorylation in pig LLC-PK1 cells at 125 uM preincubated for 2 hrs followed by cisplatin challenge for 24 hrs by western blot analysis; assay type: cell-based; details: Sus scrofa
LLC-PK1 [6] = assay: Renoprotective activity in pig LLC-PK1 cells assessed as inhibition of cisplatin-induced cleaved caspase-3 expression at 125 uM preincubated for 2 hrs followed by cisplatin challenge for 24 hrs by western blot analysis; assay type: functional, cell-based; details: Sus scrofa
LLC-PK1 [7] = assay: Renoprotective activity against cisplatin induced toxicity in pig LLC-PK1 cells assessed as reduction in apoptotic cells at 125 uM preincubated for 2 hrs followed by cisplatin challenge for 24 hrs annexin-V-FITC and propidium iodide staining based flow cytometry; assay type: functional, cell-based; details: Sus scrofa
LLC-PK1 [8] = assay: Renoprotective activity in pig LLC-PK1 cells assessed as reduction in cisplatin-induced cell shrank at 125 uM preincubated for 2 hrs followed by cisplatin challenge for 24 hrs by phase-contrast microscopic analysis; assay type: functional, cell-based; details: Sus scrofa
LLC-PK1 [9] = assay: Renoprotective activity in pig LLC-PK1 cells assessed as reduction in cisplatin-induced progressive condensation at 125 uM preincubated for 2 hrs followed by cisplatin challenge for 24 hrs by phase-contrast microscopic analysis; assay type: functional, cell-based; details: Sus scrofa
LLC-PK1 [10] = assay: Renoprotective activity in pig LLC-PK1 cells assessed as reduction in cisplatin-induced toxicity at 125 uM preincubated for 2 hrs followed by cisplatin challenge for 24 hrs by MTT assay; assay type: functional, Sus scrofa; design: scale not given: the % may be the effect or the level left
LLC-PK1 [11] = assay: Renoprotective activity in pig LLC-PK1 cells assessed as reduction in cisplatin-induced toxicity preincubated for 2 hrs followed by cisplatin challenge for 24 hrs by MTT assay; assay type: functional, cell-based; details: Sus scrofa

Row | Compound | inhibition (LLC-PK1 [1]) | Activity (LLC-PK1 [2]) | inhibition (LLC-PK1 [3]) | Activity (LLC-PK1 [4]) | inhibition (LLC-PK1 [5]) | inhibition (LLC-PK1 [6]) | Activity (LLC-PK1 [7]) | Activity (LLC-PK1 [8]) | Activity (LLC-PK1 [9]) | Activity (LLC-PK1 [10]) | Activity (LLC-PK1 [11])
1 | C=C(C=O)[C@@H]1CC[C@]2(C(=O)O)CC[C@]3(C)[C@H](CC[C@@H]4[C@@]5(C)CC[C@H](O)C(C)(C)[C@@H]5CC[C@]43C)[C@@H]12 | Active | 80% | Active | Active | Active | Active | Active | Active | Active | 80% | Dose-dependent effect
2 | C=C(C)[C@@H]1CC[C@]2(C(=O)O)CC[C@]3(C)[C@H](CC[C@@H]4[C@@]5(C)C[C@@H](O)[C@H](O)C(C)(C)[C@@H]5CC[C@]43C)[C@@H]12 | – | – | – | – | – | – | – | – | – | – | Dose-dependent effect
3 | C=C(C)[C@@H]1CC[C@]2(C(=O)O)CC[C@]3(C)[C@H](CC[C@@H]4[C@@]5(C)CC[C@H](O)C(C)(C)[C@@H]5CC[C@]43C)[C@@H]12 [BETULINIC ACID] | Active | 80% | Active | Active | inactive | Active | Active | Active | Active | 80% | Dose-dependent effect
4 | C=C(C)[C@@H]1CC[C@]2(C(=O)O)CC[C@]3(C)[C@H](CC[C@@H]4[C@@]5(C)C[C@@H](OC(=O)/C=C/c6ccc(O)cc6)[C@H](O)C(C)(C)[C@@H]5CC[C@]43C)[C@@H]12 | – | – | – | – | – | – | – | – | – | – | Dose-dependent effect
5 | C=C(C)[C@@H]1CC[C@]2(C(=O)OC)CC[C@]3(C)[C@H](CC[C@@H]4[C@@]5(C)CC[C@@H](O)C(C)(C)[C@@H]5CC[C@]43C)[C@@H]12 | – | – | – | – | – | – | – | – | – | – | Dose-dependent effect
6 | C=C(C)[C@@H]1CC[C@]2(C)CC[C@]3(C)[C@H](CC[C@@H]4[C@@]5(C)CC[C@H](O)C(C)(C)[C@@H]5CC[C@]43C)[C@@H]12 [LUPEOL] | Active | 80% | Active | Active | Active | Active | Active | Active | Active | 80% | Dose-dependent effect
7 | C=C(C)[C@@H]1CC[C@]2(CO)CC[C@]3(C)[C@H](CC[C@@H]4[C@@]5(C)CC[C@H](OC(C)=O)C(C)(C)[C@@H]5CC[C@]43C)[C@@H]12 | Active | 80% | Active | Active | Active | Active | Active | Active | Active | 80% | Dose-dependent effect
